# Reference: US4543256A, “(-)-10,1L Methylenedioxy-N-N-propylnoraporphine and methods employing it for inhibiting the effects of epileptic seizures and for prevention and treatment of duodenal ulcers” (Northeastern University, priority 1982, dated 1985)
# Structures can show the parent of a compound that is named as a salt.
# Tests used:
# [1] = tested on: rats; assay: Catalepsy (maintenance of abnormal posture on bar); assay type: in vivo, rat (male Sprague-Dawley); details: i.p.
# Procedure: Male Sprague-Dawley (Charles River Labs.) rats (initially 175-200 g) were housed four per cage, with free access to food and water, under controlled lighting (on 7:00 a.m. to 7:00 p.m.), constant temperature 21°-23° C. and controlled humidity (40-50%). Aporphines were administered, as described below, freshly dissolved in 1 mM citric acid mixed with 0.9% (w/v) saline (1:4, vols.); this solvent was also used as a vehicle ("placebo") control. Haloperidol was given in the same medium; 2-diethyl aminoethyl-2,2 diphenylvalerate HCl (SKF-525A) was given in saline.
# Catalepsy was assessed as described in detail elsewhere (Campbell and Baldessarini, 1981a; 1981b, Life Sciences 29 1341-46). Briefly, rats were evaluated every 10 min. by timing (stopwatch) their maintenance of an abnormal posture with forelimbs on a 1 cm-diameter steel bar parallel to, and 8 cm above the bench, so that the rat rested on its hindquarters only; 60 sec. was taken as a maximum and nearly all normal untreated rats remained on the bar for less than 5 sec. […]
# In all experiments except those which evaluated the time-course of drug effects, rats were given an injection of vehicle and then allowed to rest for 15 min. to adapt to nonspecific arousal effects, prior to a second injection of test agent (or placebo) and immediate behavioral testing. […]
# [2] = tested on: Adenylate cyclase; assay: Adenylate cyclase stimulation (cAMP) in rat striatal homogenates; assay type: biochemical; details: 100 μM; control (no addition) 2.38 ± 0.14; N=4
# Text: of cAMP in rat striatal homogenates; inhibition of binding of
compound,measurement,setting,value
"CCCN1CCc2cccc3c2[C@H]1Cc1ccc2c(c1-3)OCO2 [MDO-NPA, (-) 10, 11-methylenedioxy-N-n-propylnoraporphine-HCl]","dose of maximum effect, catalepsy",[1],0.3 µmol/kg
same,catalepsy,[1]; doses similar to those which inhibited general activity,strong catalepsy
same,Adenylate cyclase stimulation (cAMP),[2],2.92 ± 0.32 pmol/assay
